Measurements published in article PMC9785280, “Synthesis, Antiproliferative Evaluation and QSAR Analysis of Novel Halogen- and Amidino-Substituted Benzothiazoles and Benzimidazoles” (International Journal of Molecular Sciences, 2022).

How the values were obtained:
human fibroblasts (BJ) = assay: MTT antiproliferative assay, normal BJ fibroblasts; type: cell-based; conditions: Homo sapiens, Fibroblast, 72 h, MTT, mean ± SD of three independent experiments; normal cells
Protocol: (§1) The growth inhibition activity was assessed according to the slightly modified procedure performed at the National Cancer Institute, Developmental Therapeutics Program.
(§2) Examined compounds were dissolved in DMSO (1 × 10^−2 M). The experiments were carried out on seven human tumor cell lines and two normal cell lines. The following cell lines were used: HeLa (human cervical adenocarcinoma; purchased from ATCC), CaCo-2 (human colorectal adenocarcinoma), HuT78 (T-cell lymphoma), THP-1 (acute monocytic leukemia), SW620 (colorectal adenocarcinoma, metastatic), MDA-MB-231 (human breast adenocarcinoma), HL60 (promyelocytic leukemia cell line), foreskin fibroblast cells (BJ) and MDCK1 (Madine–Darby canine kidney fibroblast like cells). MDCK1 cells were used between 24 and 26 passages.
(§3) Adherent cells were cultured in the Dulbecco’s modified Eagle medium—DMEM (Gibco, EU) supplemented with 10 % heat-inactivated fetal bovine serum (FBS, Gibco, EU), 2 mM glutamine, and 100 U/0.1 mg penicillin/streptomycin. Cells on suspension were cultured in RPMI 1640 (Gibco, EU) medium supplemented with 10 % FBS (Gibco, EU), 2 mM glutamine, 1 mM sodium pyruvate, 10 mM HEPES. Cells were grown in humidified atmosphere under the conditions of 37 °C/5% of CO2 gas in the CO2 incubator (IGO 150 CELLlife^TM, JOUAN, Thermo Fisher Scientific, Waltham, MA, USA). A erythrosin B (Sigma-Aldrich, St. Louis, MO, USA) dye exclusion method was used to assess cell viability before plating.
(§4) Adherent cells (HeLa, CaCo-2, MCF-7 and MDCK-1) were plated in 96-well flat bottom plates (Greiner, Frickenhausen, Austria) at a concentration of 2 × 10^4 cells/mL. Suspension cells (THP-1 and HuT78) were plated in 96-well microtiter plates (Sarstead, Newton, USA) at a concentration of 1 × 10^5 cells/mL. Twenty-four hours later, cells were treated with test agents in […] 10-fold dilutions ([…] to 10^−4 M) and incubated for further 72 h. Working dilutions were freshly prepared on the day of testing. The solvent was also tested for eventual inhibitory activity by adjusting its concentration to be the same as in working concentrations. After 72 h of incubation, the cell growth rate was evaluated by performing the MTT assay, which detects dehydrogenase activity in viable cells. For this purpose, upon completion of the incubation period, growth medium was discarded and 50 μL of MTT was added to each well at a concentration of 5 mg/mL. After four hours of incubation at 37 °C, water insoluble MTT-formazan crystals were dissolved in 150 μL of dimethyl-sulfoxide (DMSO) for adherent cells, and in 10 % SDS with 0.01 M/L HCl for cells grown in suspension. The absorbance (OD, optical density) was measured on a microplate reader (iMark, BIO RAD, Hercules, CA, USA) at 595 nm.
(§5) Percent of life cells was calculated as follows: % = OD (sample)–OD (background)/OD (control)–OD (background) × 100.
(§6) Optical density (OD) of background for adherent cells is the OD of MTT solution and DMSO; OD (background) for suspension cells is OD of the culture medium with MTT and 10% SDS with 0.01 M/L HCl; OD (control) is the OD of the cells growth without tested compounds.
(§7) Calculation of GI50 value curves and QC analysis is performed by using the Excel tools and GraphPadPrism software (La Jolla, CA), v. 5.03. Briefly, individual concentration effect curves are generated by plotting the logarithm of the concentration of tested compounds(X) vs. corresponding percent inhibition values (Y) using least squares fit. The best fit GI50 values are calculated using Log (inhibitor) versus normalized response—Variable slope equation, where Y Ľ 100/(1 ţ 10 ((LogIC50 _ X) * HillSlope)). QC criteria parameters (Z0, S:B, R2, HillSlope) were checked for every GI50 curve.

[1] = system: HuT78 (T-cell lymphoma) cells; assay: MTT antiproliferative assay, HuT78; type: cell-based, human; conditions: for IC50: Homo sapiens, HuT78, 72 h, 72 h, MTT, mean ± SD of three independent experiments; for SI (BJ) HuT78: SI = IC50 BJ / IC50 HuT78; for SI (MDCK) HuT78: SI = IC50 MDCK1 / IC50 HuT78
Protocol: as §1, §2, §3, §4, §5, §6, §7

[2] = system: MDCK1 (Madin–Darby canine kidney) cells; assay: MTT antiproliferative assay, non-tumor MDCK1 cells; type: cell-based; conditions: Canis lupus familiaris, MDCK1, 72 h, mean ± SD of three independent experiments, normal cells
Protocol: as §1, §2, §3, §4, §5, §6, §7

[3] = system: CaCo-2 (colon adenocarcinoma) cells; assay: MTT antiproliferative assay, CaCo-2; type: cell-based, human; conditions: for IC50: Homo sapiens, Caco-2, 72 h, MTT, mean ± SD of three independent experiments; for SI (BJ) CaCo-2: SI = IC50 BJ / IC50 CaCo-2
Protocol: as §1, §2, §3, §4, §5, §6
as §7, with “The best fit GI50 values are calculated using Log (inhibitor) versus normalized response—Variable slope equation, where Y Ľ 100/(1 ţ 10 ((LogIC50 _ X) * HillSlope)).” left out

[4] = system: HeLa (cervical adenocarcinoma) cells; assay: MTT antiproliferative assay, HeLa; type: cell-based; conditions: Homo sapiens, 72 h, mean ± SD of three independent experiments
Protocol: as §1, §2, §3, §4, §5, §6, §7

SMILES | IC50 (human fibroblasts (BJ)) [µM] | IC50 [1] [µM] | IC50 [2] [µM] | melting point [°C] | IC50 [3] [µM] | IC50 [4] [µM] | SI (BJ) HuT78 [1] | SI (MDCK) HuT78 [1] | SI (BJ) CaCo-2 [3] | SI (MDCK) CaCo-2 ([3]; SI = IC50 MDCK1 / IC50 CaCo-2)
COc1cc(-c2nc3ccc(F)cc3s2)ccc1OCc1ccccn1 [19c] | > 100 | > 100 | 1.1 ± 0.2 | 152 to 156 | > 100 | > 100 | – | – | – | –
Fc1ccc2nc(-c3ccc(OCc4ccccn4)c(F)c3)sc2c1 [19b] | > 100 | > 100 | 16.3 ± 11.5 | 190 to 195 | > 100 | > 100 | – | – | – | –
Fc1cc(-c2nc3ccc(Cl)cc3s2)ccc1OCc1cn(Cc2ccccc2)nn1 [24b, 6-Chloro-2-(3-fluoro-4-((1-benzyl-1H-1,2,3-triazol-4-yl)methoxy)phenyl)benzothiazole] | > 100 | > 100 | 8.8 ± 8.3 | 181 to 186 | > 100 | > 100 | – | – | – | –
Cl.c1ccc(Cn2cc(COc3ccc(-c4nc5ccc(C6=NCCN6)cc5s4)cc3)nn2)cc1 [37a, 2-(4-((1-Benzyl-1H-1,2,3-triazol-4-yl)methoxy)phenyl)-6-(4,5-dihydro-1H-imidazol-2-yl)benzothiazole hydrochloride] | 4.3 ± 3.6 | 1.6 ± 0.8 | 1.5 ± 0.3 | 153 to 156 | 3.7 ± 1.5 | 3.6 ± 0.1 | – | – | – | –
Fc1cc(-c2nc3ccccc3s2)ccc1OCc1cn(Cc2ccccc2)nn1 [26b, 2-(3-Fluoro-4-((1-benzyl-1H-1,2,3-triazol-4-yl)methoxy)phenyl)benzothiazole] | > 100 | > 100 | 64.8 ± 38.5 | 198 to 201 | > 100 | > 100 | – | – | – | –
COc1cc(-c2nc3ccc(C4=NCCN4)cc3s2)ccc1OCc1ccccn1.Cl [35c, 2-(3-Methoxy-4-(pyridin-2-ylmethoxy)phenyl)-6-(4,5-dihydro-1H-imidazol-2-yl)benzothiazole hydrochloride] | 6.7 ± 4.9 | 6.2 ± 2.7 | 7.5 ± 3.5 | 219 to 223 | 18.2 ± 3.3 | 21.8 ± 5.5 | – | – | – | –
COc1cc(-c2nc3ccc(Cl)cc3s2)ccc1OCc1c[nH]nn1 [21c, 6-Chloro-2-(3-methoxy-4-((1H-1,2,3-triazol-4-yl)methoxy)phenyl)benzothiazole] | > 100 | 24.3 ± 6.5 | 43.2 ± 12.4 | 183 to 188 | > 100 | > 100 | 4.11 | 1.78 | – | –
Fc1ccc2nc(-c3ccc(OCc4ccccn4)cc3)sc2c1 [19a] | > 100 | > 100 | 1.1 ± 0.2 | 165 to 170 | > 100 | > 100 | – | – | – | –
Cl.O=C(COc1ccc(-c2nc3ccc(C4=NCCN4)cc3s2)cc1F)c1ccccc1 [34b, 2-(3-Fluoro-4-(2-oxo-2-phenylethoxy)phenyl)-6-(4,5-dihydro-1H-imidazol-2-yl)benzothiazole hydrochloride] | 11.2 ± 6 | 2.1 ± 0.2 | 2.2 ± 0.3 | > 240 | 7 ± 5.4 | 4.5 ± 4.3 | – | – | – | –
Fc1ccc2nc(-c3ccc(OCc4cn(Cc5ccccc5)nn4)c(F)c3)sc2c1 [25b, 6-Fluoro-2-(3-fluoro-4-((1-benzyl-1H-1,2,3-triazol-4-yl)methoxy)phenyl)benzothiazole] | > 100 | 19.7 ± 10.6 | 51.3 ± 4.6 | 205 to 208 | > 100 | > 100 | 5.07 | 2.6 | – | –
COc1cc(-c2nc3ccc(F)cc3s2)ccc1OCc1c[nH]nn1 [22c, 6-Fluoro-2-(3-methoxy-4-((1H-1,2,3-triazol-4-yl)methoxy)phenyl)benzothiazole] | > 100 | 38.1 ± 23.4 | 0.7 ± 0.3 | 196 to 199 | > 100 | > 100 | 2.62 | – | – | –
Fc1cc(-c2nc3ccccc3s2)ccc1OCc1ccccn1 [20b] | > 100 | > 100 | 94.2 ± 18.4 | 136 to 142 | 28.7 ± 16.7 | > 100 | – | – | 3.48 | 3.28
Fc1ccc2nc(-c3ccc(OCc4cn(Cc5ccccc5)nn4)cc3)sc2c1 [25a, 6-Fluoro-2-(4-((1-benzyl-1H-1,2,3-triazol-4-yl)methoxy)phenyl)benzothiazole] | 10 ± 0.01 | > 100 | 8.2 ± 5.8 | 176 to 180 | > 100 | > 100 | – | – | – | –
c1ccc2sc(-c3ccc(OCc4c[nH]nn4)cc3)nc2c1 [23a, 2-(4-((1H-1,2,3-triazol-4-yl)methoxy)phenyl)benzothiazole] | > 100 | 19 ± 4 | 40.7 ± 5.7 | 204 to 207 | 95.6 ± 6.6 | 52.4 ± 18.4 | 5.26 | 2.14 | – | –
Fc1ccc2nc(-c3ccc(OCc4c[nH]nn4)cc3)sc2c1 [22a, 6-Fluoro-2-(4-((1H-1,2,3-triazol-4-yl)methoxy)phenyl)benzothiazole] | > 100 | 14.9 ± 10.8 | 1.1 ± 0.2 | 212 to 215 | 73.5 ± 4.5 | 54.5 ± 29.4 | 6.71 | – | – | –
Fc1cc(-c2nc3ccc(Cl)cc3s2)ccc1OCc1ccccn1 [18b] | > 100 | > 100 | 29.8 ± 17.7 | 211 to 215 | > 100 | > 100 | – | – | – | –
COc1cc(-c2nc3ccccc3s2)ccc1OCc1ccccn1 [20c] | > 100 | 64.7 ± 11.3 | 85.9 ± 15.7 | 110 to 115 | 89.2 ± 16.8 | > 100 | 1.55 | 1.33 | 1.12 | –
COc1cc(-c2nc3ccccc3s2)ccc1OCc1c[nH]nn1 [23c, 2-(3-Methoxy-4-((1H-1,2,3-triazol-4-yl)methoxy)phenyl)benzothiazole] | > 100 | 20 ± 8.7 | 29.5 ± 7.2 | 177 to 180 | 96.4 ± 13.3 | 45.7 ± 16.3 | 5.0 | – | – | –
COc1cc(-c2nc3ccccc3s2)ccc1OCC(=O)c1ccccc1 [17c, 2-(3-Methoxy-4-(2-oxo-2-phenylethoxy)phenyl)benzothiazole] | > 100 | > 100 | 78 ± 27.8 | 184 to 186 | > 100 | > 100 | – | – | – | –
